The results in this text go back to patent US11535629B2, “Dioxoloisoquinolinone derivatives and use thereof” (HANMI PHARMACEUTICAL CO., LTD., priority 2020, dated 2022).

Read-outs that look alike come from different tables or passages of the source.

In this experiment the test system is KARPAS-422 cells. Description: Cell growth inhibition test (CTG method). The class given is cell-based. Particulars: KARPAS-422 (EZH2^Y641N mutant), culturing for 7 days, read-out: Cell growth inhibitory activity (GI50, nM) KARPAS-422 (EZH2^Y641N mutant). Here is the method: The cultured cell strain was prepared at 1.8×10^4 cells/400 μL and placed in a 48-well plate.

Setting [1] is: Homo sapiens, KARPAS-422, 168 h.

On to `Cc1cc(C)c(CN2CCc3c(c(C)c4c(c3C3CC3)OC(C)(C35CCC(N(C)C)(CC3)CC5)O4)C2=O)c(=O)[nH]1` (stereo not drawn) [Compound 13, 9-cyclopropyl-6-((4,6-dimethyl-2-oxo-1,2-dihydropyridin-3-yl)methyl)-2-(4-(dimethylamino)bicyclo[2.2.2]octan-1-yl)-2,4-dimethyl-7,8-dihydro-[1,3]dioxolo[4,5-g]isoquinolin-5(6H)-one], for which the GI50 under setting [1] was 30 nM. On to `C#Cc1c2c(c(C)c3c1OC(C)(C14CCC(N(C)C)(CC1)CC4)O3)C(=O)N(Cc1c(C)cc(C)[nH]c1=O)CC2` (stereo not drawn) [Compound 21, 6-((4,6-dimethyl-2-oxo-1,2-dihydropyridin-3-yl)methyl)-2-(4-(dimethylamino)bicyclo[2.2.2]octan-1-yl)-9-ethynyl-2,4-dimethyl-7,8-dihydro-[1,3]dioxolo[4,5-g]isoquinolin-5(6H)-one], for which the GI50 under setting [1] came out at 18 nM. As for `Cc1cc(C)c(CN2CCc3c(Br)c4c(c(C)c3C2=O)OC(C)(C23CCC(N(C)C)(CC2)CC3)O4)c(=O)[nH]1` (stereo not drawn) [Compound 10, 9-bromo-6-((4,6-dimethyl-2-oxo-1,2-dihydropyridin-3-yl)methyl)-2-(4-(dimethylamino)bicyclo[2.2.2]octan-1-yl)-2,4-dimethyl-7,8-dihydro-[1,3]dioxolo[4,5-g]isoquinolin-5(6H)-one], under setting [1], the GI50 was in the range of 4.1 to 55 nM. In the case of `Cc1cc(C)c(CN2CCc3c(C)c4c(c(C)c3C2=O)OC(C)(C23CCC(N(C)C)(CC2)CC3)O4)c(=O)[nH]1` (stereo not drawn) [Compound 22, 6-((4,6-dimethyl-2-oxo-1,2-dihydropyridin-3-yl)methyl)-2-(4-(dimethylamino)bicyclo[2.2.2]octan-1-yl)-2,4,9-trimethyl-7,8-dihydro-[1,3]dioxolo[4,5-g]isoquinolin-5(6H)-one], the concentration for 50% growth inhibition (GI50) fell in the range of 12 to 19 nM. `Cc1cc(C)c(CN2CCc3c(c(C)c4c(c3-c3cccs3)O[C@@](C)([C@H]3CC[C@H](N(C)C)CC3)O4)C2=O)c(=O)[nH]1` [Compound 33, (S)-6-((4,6-dimethyl-2-oxo-1,2-dihydropyridin-3-yl)methyl)-2-(trans-4-(dimethylamino)cyclohexyl)-2,4-dimethyl-9-(thiophen-2-yl)-7,8-dihydro-[1,3]dioxolo[4,5-g]isoquinolin-5(6H)-one]: under setting [1], the 50% growth inhibitory concentration (GI50) is more than 1000 nM.

As to `Cc1cc(C)c(CN2CCc3c(c(C)c4c(c3C3CCCC3)OC(C)(C35CCC(N(C)C)(CC3)CC5)O4)C2=O)c(=O)[nH]1` (stereo not drawn) [Compound 16, 9-cyclopentyl-6-((4,6-dimethyl-2-oxo-1,2-dihydropyridin-3-yl)methyl)-2-(4-(dimethylamino)bicyclo[2.2.2]octan-1-yl)-2,4-dimethyl-7,8-dihydro-[1,3]dioxolo[4,5-g]isoquinolin-5(6H)-one], the GI50 under setting [1] turned out to be 36 nM. For `Cc1cc(C)c(CN2CCc3c(c(C)c4c(c3C(C)C)OC(C)(C35CCC(N(C)C)(CC3)CC5)O4)C2=O)c(=O)[nH]1` (stereo not drawn) [Compound 20, 6-((4,6-dimethyl-2-oxo-1,2-dihydropyridin-3-yl)methyl)-2-(4-(dimethylamino)bicyclo[2.2.2]octan-1-yl)-9-isopropyl-2,4-dimethyl-7,8-dihydro-[1,3]dioxolo[4,5-g]isoquinolin-5(6H)-one], the concentration for 50% growth inhibition (GI50) under setting [1] is 47 nM. In the case of `Cc1cc(C)c(CN2CCc3c(Cl)c4c(c(C)c3C2=O)OC(C)(C23CCC(N(C)C)(CC2)CC3)O4)c(=O)[nH]1` (single isomer, unassigned) [Compound 3, 9-chloro-6-((4,6-dimethyl-2-oxo-1,2-dihydropyridin-3-yl)methyl)-2-(4-(dimethylamino)bicyclo[2.2.2]octan-1-yl)-2,4-dimethyl-7,8-dihydro-[1,3]dioxolo[4,5-g]isoquinolin-5(6H)-one], the GI50 lay within 100 to 1000 nM. Turning to `Cc1cc(C)c(CN2CCc3c(c(C)c4c(c3-c3ccoc3)O[C@](C)([C@H]3CC[C@H](N(C)C)CC3)O4)C2=O)c(=O)[nH]1` [Compound 56, (R)-6-((4,6-dimethyl-2-oxo-1,2-dihydropyridin-3-yl)methyl)-2-(trans-4-(dimethylamino)cyclohexyl)-9-(furan-3-yl)-2,4-dimethyl-7,8-dihydro-[1,3]dioxolo[4,5-g]isoquinolin-5(6H)-one], the concentration for 50% growth inhibition (GI50) under setting [1] was 7.2 nM. Take `Cc1cc(C)c(CN2CCc3c(Br)c4c(c(C)c3C2=O)OC(C)(C23CCC(N(C)C)(CC2)CC3)O4)c(=O)[nH]1` (single isomer, unassigned) [Compound 12, 9-bromo-6-((4,6-dimethyl-2-oxo-1,2-dihydropyridin-3-yl)methyl)-2-(4-(dimethylamino)bicyclo[2.2.2]octan-1-yl)-2,4-dimethyl-7,8-dihydro-[1,3]dioxolo[4,5-g]isoquinolin-5(6H)-one]: the concentration for 50% growth inhibition (GI50) is more than 1000 nM. Turning to `Cc1cc(C)c(CN2CCc3c(c(C)c4c(c3-c3cncnc3)O[C@@](C)([C@H]3CC[C@H](N(C)C)CC3)O4)C2=O)c(=O)[nH]1` [Compound 47, (S)-6-((4,6-dimethyl-2-oxo-1,2-dihydropyridin-3-yl)methyl)-2-(trans-4-(dimethylamino)cyclohexyl)-2,4-dimethyl-9-(pyrimidin-5-yl)-7,8-dihydro-[1,3]dioxolo[4,5-g]isoquinolin-5(6H)-one], the 50% growth inhibitory concentration (GI50) under setting [1] was more than 1000 nM. The same measure, in the same setting: as for `Cc1cc(C)c(CN2CCc3c(c(C)c4c(c3-c3cccnc3)O[C@@](C)([C@H]3CC[C@H](N(C)C)CC3)O4)C2=O)c(=O)[nH]1` [Compound 45, (S)-6-((4,6-dimethyl-2-oxo-1,2-dihydropyridin-3-yl)methyl)-2-(trans-4-(dimethylamino)cyclohexyl)-2,4-dimethyl-9-(pyridin-3-yl)-7,8-dihydro-[1,3]dioxolo[4,5-g]isoquinolin-5(6H)-one], the figure is more than 1000 nM; as for `Cc1cc(C)c(CN2CCc3c(c(C)c4c(c3-c3ccco3)O[C@@](C)([C@H]3CC[C@H](N)CC3)O4)C2=O)c(=O)[nH]1` [Compound 59, (S)-2-(trans-4-aminocyclohexyl)-6-((4,6-dimethyl-2-oxo-1,2-dihydropyridin-3-yl)methyl)-9-(furan-2-yl)-2,4-dimethyl-7,8-dihydro-[1,3]dioxolo[4,5-g]isoquinolin-5(6H)-one], more than 1000 nM.

Regarding `Cc1cc(C)c(CN2CCc3c(c(C)c4c(c3-c3ccoc3)O[C@@](C)([C@H]3CC[C@H](N(C)C)CC3)O4)C2=O)c(=O)[nH]1` [Compound 57, (S)-6-((4,6-dimethyl-2-oxo-1,2-dihydropyridin-3-yl)methyl)-2-(trans-4-(dimethylamino)cyclohexyl)-9-(furan-3-yl)-2,4-dimethyl-7,8-dihydro-[1,3]dioxolo[4,5-g]isoquinolin-5(6H)-one], the 50% growth inhibitory concentration (GI50) under setting [1] is more than 1000 nM. As to `CN[C@H]1CC[C@H]([C@]2(C)Oc3c(C)c4c(c(-c5ccco5)c3O2)CCN(Cc2c(C)cc(C)[nH]c2=O)C4=O)CC1` [Compound 60, (R)-6-((4,6-dimethyl-2-oxo-1,2-dihydropyridin-3-yl)methyl)-9-(furan-2-yl)-2,4-dimethyl-2-(trans-4-(methylamino)cyclohexyl)-7,8-dihydro-[1,3]dioxolo[4,5-g]isoquinolin-5(6H)-one], the GI50 under setting [1] worked out at 19 nM. The same measure, in the same setting: the value for `Cc1cc(C)c(CN2CCc3c(c(C)c4c(c3-n3ccnc3)O[C@](C)([C@H]3CC[C@H](N(C)C)CC3)O4)C2=O)c(=O)[nH]1` [Compound 54, (R)-6-((4,6-dimethyl-2-oxo-1,2-dihydropyridin-3-yl)methyl)-2-(trans-4-(dimethylamino)cyclohexyl)-9-(1H-Imidazol-1-yl)-2,4-dimethyl-7,8-dihydro-[1,3]dioxolo[4,5-g]isoquinolin-5(6H)-one] was 28 nM; that for `Cc1cc(C)c(CN2CCc3c(c(C)c4c(c3-c3cccn3C)O[C@@](C)([C@H]3CC[C@H](N(C)C)CC3)O4)C2=O)c(=O)[nH]1` [Compound 49, (S)-6-((4,6-dimethyl-2-oxo-1,2-dihydropyridin-3-yl)methyl)-2-(trans-4-(dimethylamino)cyclohexyl)-2,4-dimethyl-9-(1-methyl-1H-pyrrol-2-yl)-7,8-dihydro-[1,3]dioxolo[4,5-g]isoquinolin-5 (6H)-one] was more than 1000 nM; that for `Cc1cc(C)c(CN2CCc3c(c(C)c4c(c3-n3ccnc3)O[C@@](C)([C@H]3CC[C@H](N(C)C)CC3)O4)C2=O)c(=O)[nH]1` [Compound 55, (S)-6-((4,6-dimethyl-2-oxo-1,2-dihydropyridin-3-yl)methyl)-2-(trans-4-(dimethylamino)cyclohexyl)-9-(1H-imidazol-1-yl)-2,4-dimethyl-7,8-dihydro-[1,3]dioxolo[4,5-g]isoquinolin-5(6H)-one] was more than 1000 nM.

`CCc1c2c(c(C)c3c1OC(C)(C14CCC(N(C)C)(CC1)CC4)O3)C(=O)N(Cc1c(C)cc(C)[nH]c1=O)CC2` (stereo not drawn) [Compound 18, 6-((4,6-dimethyl-2-oxo-1,2-dihydropyridin-3-yl)methyl)-2-(4-(dimethylamino)bicyclo[2.2.2]octan-1-yl)-9-ethyl-2,4-dimethyl-7,8-dihydro-[1,3]dioxolo[4,5-g]isoquinolin-5(6H)-one]: the GI50 under setting [1] is 27 nM. `Cc1cc(C)c(CN2CCc3c(Cl)c4c(c(Cl)c3C2=O)OC(C)(C23CCC(N(C)C)(CC2)CC3)O4)c(=O)[nH]1` (stereo not drawn) [Compound 28, 4,9-dichloro-6-((4,6-dimethyl-2-oxo-1,2-dihydropyridin-3-yl)methyl)-2-(4-(dimethylamino)bicyclo[2.2.2]octan-1-yl)-2-methyl-7,8-dihydro-[1,3]dioxolo[4,5-g]isoquinolin-5(6H)-one]: the GI50 under setting [1] is 13 nM. `Cc1cc(C)c(CN2CCc3c(C)c4c(c(Cl)c3C2=O)OC(C)(C23CCC(N(C)C)(CC2)CC3)O4)c(=O)[nH]1` (stereo not drawn) [Compound 27, 4-chloro-6-((4,6-dimethyl-2-oxo-1,2-dihydropyridin-3-yl)methyl)-2-(4-(dimethylamino)bicyclo[2.2.2]octan-1-yl)-2,9-dimethyl-7,8-dihydro-[1,3]dioxolo[4,5-g]isoquinolin-5(6H)-one]: the GI50 under setting [1] came to 9.8 nM.
